The source made the active and inactive calls. The rule behind the calls is not given here.

The subject of data set [1] is Rattus norvegicus. Kind of data set: Antiinflammatory activity in ovalbumin-induced allergic Brown Norway rat lung inflammation model assessed as inhibition of forced vital capacity at 3 mg/kg, po qd administered 3 days before ovalbumin-challenge measured 24 hrs of post ovalbumin challenge. It is filed as functional.
Data set [2] concerns the target T1, Progesterone receptor (Homo sapiens, UniProt P06401).
T1 sequence (P06401 whole entry): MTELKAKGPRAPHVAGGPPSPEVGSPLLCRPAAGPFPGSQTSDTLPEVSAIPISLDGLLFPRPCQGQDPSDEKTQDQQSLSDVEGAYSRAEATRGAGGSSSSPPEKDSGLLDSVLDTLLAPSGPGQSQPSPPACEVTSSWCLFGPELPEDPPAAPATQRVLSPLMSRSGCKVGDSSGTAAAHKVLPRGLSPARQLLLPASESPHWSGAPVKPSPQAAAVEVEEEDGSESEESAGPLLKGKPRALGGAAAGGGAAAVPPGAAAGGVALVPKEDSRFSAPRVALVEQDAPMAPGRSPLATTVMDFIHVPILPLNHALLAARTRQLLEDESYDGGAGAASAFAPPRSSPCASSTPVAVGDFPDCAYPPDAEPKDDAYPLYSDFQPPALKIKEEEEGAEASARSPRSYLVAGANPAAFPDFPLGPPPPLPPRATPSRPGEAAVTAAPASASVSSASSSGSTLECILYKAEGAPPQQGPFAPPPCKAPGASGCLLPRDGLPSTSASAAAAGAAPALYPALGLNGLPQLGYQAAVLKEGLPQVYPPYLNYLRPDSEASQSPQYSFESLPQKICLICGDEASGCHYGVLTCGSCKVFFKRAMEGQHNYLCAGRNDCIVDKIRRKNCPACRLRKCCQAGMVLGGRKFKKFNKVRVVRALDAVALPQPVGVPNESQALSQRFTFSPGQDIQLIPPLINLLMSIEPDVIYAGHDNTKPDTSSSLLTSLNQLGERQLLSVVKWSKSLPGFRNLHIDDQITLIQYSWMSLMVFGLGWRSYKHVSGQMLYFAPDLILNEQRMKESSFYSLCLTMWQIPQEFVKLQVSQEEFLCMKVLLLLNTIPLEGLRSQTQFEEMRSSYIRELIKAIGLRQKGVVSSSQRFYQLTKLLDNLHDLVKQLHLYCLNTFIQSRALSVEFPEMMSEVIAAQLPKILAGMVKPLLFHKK
Nature of the data set: Inhibition of human progesterone receptor.

Data set [3] relates to Rattus norvegicus. Kind of data set: Toxicity in Brown Norway rat allergic lung inflammation model assessed as decrease in thymus weight at 0.3 to 30 mg/kg, po for 10 days. Also on record: dose 0.3-30 mg/kg, route oral. The settings on record: in vivo, 240 h. It is filed as organism-based.
Data set [4] deals with Rattus norvegicus. Kind of data set: Antiinflammatory activity in rat assessed as inhibition of LPS-induced TNF-alpha secretion up to 50 mg/kg, po. It is filed as functional, organism-based. Details: dose 50 mg/kg.
For data set [5], the target named is T2, Glucocorticoid receptor (Homo sapiens, UniProt P04150).
T2 sequence (P04150 whole entry): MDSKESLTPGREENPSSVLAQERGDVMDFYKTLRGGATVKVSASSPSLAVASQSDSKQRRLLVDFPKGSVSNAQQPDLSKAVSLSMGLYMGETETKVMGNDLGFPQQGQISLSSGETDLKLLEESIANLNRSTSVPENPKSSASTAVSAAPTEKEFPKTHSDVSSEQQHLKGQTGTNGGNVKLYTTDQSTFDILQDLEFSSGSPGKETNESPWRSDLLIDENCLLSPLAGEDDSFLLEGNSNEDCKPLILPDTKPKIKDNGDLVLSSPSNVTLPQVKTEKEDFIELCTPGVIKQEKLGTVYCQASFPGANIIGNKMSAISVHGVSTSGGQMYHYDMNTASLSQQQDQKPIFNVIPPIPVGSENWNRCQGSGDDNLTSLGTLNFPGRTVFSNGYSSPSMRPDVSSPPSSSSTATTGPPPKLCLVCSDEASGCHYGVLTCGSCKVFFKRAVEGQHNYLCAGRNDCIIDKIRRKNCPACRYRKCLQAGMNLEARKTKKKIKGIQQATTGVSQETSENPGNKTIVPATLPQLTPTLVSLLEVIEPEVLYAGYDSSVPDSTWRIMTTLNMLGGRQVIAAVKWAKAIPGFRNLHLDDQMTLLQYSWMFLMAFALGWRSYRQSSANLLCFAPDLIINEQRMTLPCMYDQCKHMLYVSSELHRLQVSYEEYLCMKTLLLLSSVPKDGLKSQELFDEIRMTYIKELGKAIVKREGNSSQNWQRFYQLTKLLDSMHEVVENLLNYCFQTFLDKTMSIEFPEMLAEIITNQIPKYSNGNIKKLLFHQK
Nature of the data set: Transrepression activity at glucocorticoid receptor in human H292 cells assessed as inhibition of TNF-stimulated IL-8 production. It is filed as cell-based.

The target of data set [6] is T3, Glucocorticoid receptor (Rattus norvegicus, UniProt P06536).
T3 sequence (P06536 whole entry): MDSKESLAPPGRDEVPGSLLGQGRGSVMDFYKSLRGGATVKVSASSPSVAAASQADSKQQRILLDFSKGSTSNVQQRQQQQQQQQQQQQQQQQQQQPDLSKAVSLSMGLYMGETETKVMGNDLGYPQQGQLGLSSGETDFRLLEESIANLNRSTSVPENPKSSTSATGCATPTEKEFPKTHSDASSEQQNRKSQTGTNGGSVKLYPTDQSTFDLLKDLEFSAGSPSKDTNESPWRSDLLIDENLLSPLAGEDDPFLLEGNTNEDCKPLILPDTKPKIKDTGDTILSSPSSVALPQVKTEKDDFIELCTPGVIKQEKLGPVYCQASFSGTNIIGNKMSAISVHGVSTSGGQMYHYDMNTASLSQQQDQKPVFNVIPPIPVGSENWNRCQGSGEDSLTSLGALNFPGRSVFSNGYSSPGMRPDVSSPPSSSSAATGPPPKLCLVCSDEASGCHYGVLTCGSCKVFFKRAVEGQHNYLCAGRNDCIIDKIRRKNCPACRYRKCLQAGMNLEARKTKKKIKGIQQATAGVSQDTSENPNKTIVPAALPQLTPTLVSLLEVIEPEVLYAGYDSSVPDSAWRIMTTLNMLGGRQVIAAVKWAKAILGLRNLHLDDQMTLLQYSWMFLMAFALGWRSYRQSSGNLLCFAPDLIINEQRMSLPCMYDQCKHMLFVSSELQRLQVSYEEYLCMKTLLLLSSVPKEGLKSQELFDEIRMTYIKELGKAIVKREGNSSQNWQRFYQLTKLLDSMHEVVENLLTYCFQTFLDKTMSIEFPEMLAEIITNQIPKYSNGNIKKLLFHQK
Nature of the data set: Transactivation of glucocorticoid receptor in rat H42E cells assessed as induction of TAT measuring degradation of tyrosine to p-hydroxy phenyl pyruvate. It counts as cell-based. The settings on record: read-out: IC50 (the source's name).

Data set [7] deals with Rattus norvegicus. Kind of data set: Antiinflammatory activity against Brown Norway rat allergic lung inflammation model assessed as total cell inhibition at 0.3 to 30 mg/kg, po for 10 days relative to prednisolone. It is filed as functional, organism-based.
The subject of data set [8] is Rattus norvegicus. Nature of the data set: Antiinflammatory activity in ovalbumin-induced allergic Brown Norway rat lung inflammation model assessed as inhibition of forced vital capacity at 10 mg/kg, po qd administered 3 days before ovalbumin-challenge measured 24 hrs of post ovalbumin challenge. It is filed as functional.
For data set [9], the system named is Rattus norvegicus. Kind of data set: Antiinflammatory activity in po dosed ovalbumin-induced allergic Brown Norway rat lung inflammation model assessed as inhibition of forced vital capacity administered 3 days before ovalbumin-challenge measured 24 hrs of post ovalbumin challenge. It counts as functional.
Data set [10] concerns Rattus norvegicus. Nature of the data set: Antiinflammatory activity against Brown Norway rat allergic lung inflammation model assessed as total cell inhibition at 10 mg/kg, po for 3 days. It is filed as functional. Also on record: scale not given: the % may be the effect or the level left.
Data set [11] in a line: AUC in Brown Norway rat at 10 mg/kg, po. The following applies: plasma. It counts as ADME, organism-based. Details: dose 10 mg/kg, route oral.
Data set [12] has as its target T2, Glucocorticoid receptor. Kind of data set: Transactivation of glucocorticoid receptor in human HepG2 cells assessed as induction of TAT measuring degradation of tyrosine to p-hydroxy phenyl pyruvate at 1 uM relative to untreated control. It counts as cell-based. The settings on record: hepg2, 1 µM.
Data set [13] deals with T2, Glucocorticoid receptor. Kind of data set: Inhibition of human glucocorticoid receptor.
The target of data set [14] is T3, Glucocorticoid receptor. Nature of the data set: Transactivation of glucocorticoid receptor in rat H42E cells assessed as induction of TAT measuring degradation of tyrosine to p-hydroxy phenyl pyruvate at 1 uM relative to prednisolone. It counts as cell-based. The settings on record: read-out: Efficacy.
The test system of data set [15] is Rattus norvegicus. Kind of data set: Toxicity in Brown Norway rat allergic lung inflammation model assessed as decrease in thymus weight at 10 mg/kg, po for 3 days. It counts as organism-based. Also on record: dose 10 mg/kg, route oral; scale not given: the % may be the effect or the level left. The settings on record: in vivo, 72 h.
In data set [16] the test system is Rattus norvegicus. Kind of data set: Antiinflammatory activity in ovalbumin-induced allergic Brown Norway rat lung inflammation model assessed as inhibition of forced vital capacity at 30 mg/kg, po qd administered 3 days before ovalbumin-challenge measured 24 hrs of post ovalbumin challenge. It counts as functional.
Data set [17] deals with T2, Glucocorticoid receptor. Nature of the data set: Transactivation of glucocorticoid receptor in human HepG2 cells assessed as induction of TAT measuring degradation of tyrosine to p-hydroxy phenyl pyruvate. It counts as cell-based. The settings on record: read-out: IC50 (the source's name).

For orientation: inhibition in vivo means the drop in the measured response relative to a control, in per cent. A word on the IC50: it is the concentration at which inhibition is half-maximal. One may read the ED50 as the dose that gives a 50% effect, or the effect in half of the subjects. By AUC is commonly meant concentration integrated over time. Take `Cn1c(SCC(=O)[C@@]2(O)CC[C@H]3[C@@H]4CCC5=CC(=O)C=C[C@]5(C)[C@H]4[C@@H](O)C[C@@]32C)nc2ccccc21`: in data set [1], the inhibition in vivo at 3 mg/kg was 23%. Moreover, the figures for the IC50 in data set [2], in [5] and in data set [13] were 1370 nM, 47 nM and 7.3 nM, respectively. For the same compound, the figures for the Activity result in data set [3], in [10] and in data set [15] were “Toxic”, 58% and 4%, respectively. Moreover, the inhibition entry in [4] was “Active”. Also, in [6], the EC50 came to 235 nM. Further, the outcome in data set [7] was Active. In addition, the inhibition in vivo at 10 mg/kg in data set [8] is 50%. Moreover, the ED50 in data set [9] was 10 mg/kg. In addition, the AUC in [11] is 960 ng·h/mL. In addition, in data set [12], the Efficacy came to 11%. In addition, the Emax at 1 µM in data set [14] is 4%. Also, the inhibition in vivo at 30 mg/kg in data set [16] was determined as 71%.
`C[C@@H]1C[C@H]2[C@@H]3CCC4=CC(=O)C=C[C@]4(C)[C@H]3[C@@H](O)C[C@]2(C)[C@@]1(O)C(=O)CSc1nc2cccnc2s1`: the IC50 in [5] is 7 nM. The EC50 in [6] is 24.1 nM; in data set [17] it was 722 nM. The Activity in data set [10] and in data set [15] was 75% each time. The AUC in data set [11] turned out to be 11900 ng·h/mL. Moreover, in data set [12], the Efficacy worked out at 27%. Also, the Emax at 1 µM in data set [14] turned out to be 13%.
For `C[C@]12C=CC(=O)C=C1CC[C@@H]1[C@@H]2[C@@H](O)C[C@@]2(C)[C@H]1CC[C@]2(O)C(=O)CSc1ccc2ccccc2n1`, the IC50 in data set [5] is 70.2 nM. For the same compound, the EC50 in data set [6] is 361 nM; in data set [17], 262 nM. In addition, the Activity in data set [10] was found to be 21%; in data set [15], 0%. In addition, in [11], the AUC worked out at 1200 ng·h/mL. Besides, the Efficacy in data set [12] came out at 52%. The Emax at 1 µM in data set [14] is 56%.
Consider `C[C@]12C=CC(=O)C=C1CC[C@@H]1[C@@H]2[C@@H](O)C[C@@]2(C)[C@H]1CC[C@]2(O)C(=O)CO` [PREDNISOLONE], for which, in [1], the inhibition in vivo at 3 mg/kg was found to be 43%. Also, the inhibition in vivo at 10 mg/kg in [8] was found to be 81%. For the same compound, the ED50 in [9] stood at 5 mg/kg. In addition, the Activity was determined as 56% in [10] and 53% in data set [15]. In data set [11], this compound came in with an AUC of 1250 ng·h/mL. Further, the Efficacy in data set [12] is 81%. Moreover, the Emax at 1 µM in data set [14] is 100%. Besides, in data set [16], the inhibition in vivo at 30 mg/kg came out at 111%.
